In patent US12545654B2 (STEMSYNERGY THERAPEUTICS, INC., priority 2020, dated 2026):

These molecules were tested on N-myc protein (assay: In-cell immunostaining assay for decrease of N-myc protein level in neuroblastoma cells). Settings: human neuroblastoma cell lines (Kelly, IMR32, SK-N-BE(2)); treated overnight or up to 3 days; N-myc signal normalized over total protein; read-out: Activity (EC50 for decreasing N-myc protein level).
Format: cell-based
Method: Human neuroblastoma cell lines were obtained from either Millipore Sigma, St. Louis, MO (Kelly cells) or American Type Culture Collection, Manassas, VA (IMR32 and SK-N-BE(2) cells). Cells were cultured in RPMI1640 medium (Corning, New York, NY), supplemented with 10% fetal bovine serum, 100 unit/mL penicillin and 100 μg/mL streptomycin (Corning, New York, NY) at 37 degree Celsius with 5% CO2 in air atmosphere. Cells cultured in flat clear bottom, black 96-well plates (Corning, New York, NY) were treated with different concentrations of a compound of the invention, which was dissolved in the culture media (200 μL/well), overnight or up to 3 days. Cells were fixed with 4% paraformaldehyde (in Phosphate-Buffered Saline or PBS, 100 μL/well) for 30 minutes at room temperature. Cells were briefly washed three times with PBS afterwards, and then treated with PBS containing 0.1% Triton X-100 (100 μL/well) for 30 minutes at room temperature. For […], cells were further treated with PBS containing 0.01% IRDye 700DX NHS Ester (LI-COR Biosciences, Lincoln, NE. 100 μL/well) for 30 minutes at room temperature. Cells were again washed three times with PBS, and then treated with a Tris-buffered saline solution with 0.1% Tween 20 (TBST) and 5% non-fat milk (50 μL/well) for 1 hour at room temperature. Cells were then treated with TBST with 5% non-fat milk (50 μL/well) containing a mouse anti N-Myc antibody (Clone B8.4.B, 1:500 dilution, Santa Cruz Biotechnology, Santa Cruz, CA), or a combination of a rabbit anti-Histone H3 (phospho S10) antibody (Clone EPR17246, 1:10000 dilution, abcam, Cambridge, MA) and a mouse anti-Histone H3 antibody (Clone 1G1, 1:250 dilution, Santa Cruz Biotechnology, Santa Cruz, CA) overnight at 4 degree Celsius in the dark. Cells were washed three times with TBST, and then treated with TBST with 5% non-fat milk (50 μL/well) containing an IRDye 800CW donkey anti-mouse IgG antibody (1:1000 dilution, LI-COR Biosciences, Lincoln, NE) for N-myc staining, or IRDye® 800CW donkey anti-rabbit IgG and IRDye 680RD donkey anti-mouse IgG antibodies (1:1000 dilution, LI-COR Biosciences, Lincoln, NE) for Histone H3 (phospho S10) and Histone H3 staining, incubated for 1 hour at room temperature in the dark. Cells were then washed four times with TBST and the plate was scanned using an Odyssey 9120 Imaging System (LI-COR Biosciences, Lincoln, NE). Signals for N-myc, total protein, Histone H3 (phospho S10), and Histone H3 were obtained from the images using the ImageStudio software (Version 4.0.21, LI-COR Biosciences, Lincoln, NE). Normalized signals for N-myc (over total protein), and Histone H3 (phospho S10) (over Histone H3) were plotted in Prism 7 software (GraphPad Software, San Diego, CA). A four-parameter dose-response curve was fitted using a variable slope model and the EC50 was calculated in Prism 7 software (GraphPad Software, San Diego, CA).

`O=C(Nc1cccc(C(F)(F)F)c1)c1sc(NC(=O)C2(C(=O)Nc3ccc(F)cc3)CC2)nc1-c1ccccc1` and `O=C(Nc1ccc(Cl)c(Cl)c1)c1sc(NC(=O)C2(C(=O)Nc3ccc(F)cc3)CC2)nc1-c1ccccc1` cannot be ordered by EC50: greater than 1000 nM for the first, greater than 1000 nM for the second.

`O=C(Nc1ccc(Cl)c(Cl)c1)c1sc(NC(=O)C2(C(=O)Nc3ccc(F)cc3)CC2)nc1C1CC1` and `O=C(Nc1ccc(Cl)c(Cl)c1)c1sc(NC(=O)C2(C(=O)Nc3ccc(F)cc3)CC2)nc1C(F)(F)F` [SSTA-0194, N-(5-((3,4-dichlorophenyl)carbamoyl)-4-(trifluoromethyl)thiazol-2-yl)-N-(4-fluorophenyl)cyclopropane-1,1-dicarboxamide] cannot be ordered by EC50: greater than 1000 nM for the first, greater than 1000 nM for the second.

First: Cc1nc(NC(=O)C2(C(=O)Nc3ccc(F)cc3)CC2)sc1C(=O)Nc1cc(C(F)(F)F)ccc1Cl [SSTA-0152, N-(5-((2-chloro-5-(trifluoromethyl)phenyl)carbamoyl)-4-methylthiazol-2-yl)-N-(4-fluorophenyl)cyclopropane-1,1-dicarboxamide]
Second: Cc1nc(NC(=O)C2(C(=O)Nc3ccc(Cl)cc3)CC2)sc1C(=O)Nc1cc(C(F)(F)F)ccc1Cl [SSTA-0169, N-(5-((2-chloro-5-(trifluoromethyl)phenyl)carbamoyl)-4-methylthiazol-2-yl)-N-(4-chlorophenyl)cyclopropane-1,1-dicarboxamide]
The EC50 of the first is lower: 250 to 1000 nM for the first, greater than 1000 nM for the second. The first is the more potent here.

`Cc1nc(NC(=O)C2(C(=O)Nc3cccc(C(F)(F)F)c3)CC2)sc1C(=O)Nc1cc(C(F)(F)F)ccc1Cl` [SSTA-0168, N-(5-((2-chloro-5-(trifluoromethyl)phenyl)carbamoyl)-4-methylthiazol-2-yl)-N-(3-(trifluoromethyl)phenyl)cyclopropane-1,1-dicarboxamide] and `Cc1nc(NC(=O)C2(C(=O)Nc3cccc(F)c3)CC2)sc1C(=O)Nc1cc(C(F)(F)F)ccc1Cl` [SSTA-0171, N-(5-((2-chloro-5-(trifluoromethyl)phenyl)carbamoyl)-4-methylthiazol-2-yl)-N-(3-fluorophenyl)cyclopropane-1,1-dicarboxamide] cannot be ordered by EC50: greater than 1000 nM for the first, greater than 1000 nM for the second.

`Cc1nc(NC(=O)C2(C(=O)Nc3ccccc3Cl)CC2)sc1C(=O)Nc1cc(C(F)(F)F)ccc1Cl` [SSTA-0170, N-(5-((2-chloro-5-(trifluoromethyl)phenyl)carbamoyl)-4-methylthiazol-2-yl)-N-(2-chlorophenyl)cyclopropane-1,1-dicarboxamide] and `Cc1nc(NC(=O)C2(C(=O)Nc3ccc(F)cc3Cl)CC2)sc1C(=O)Nc1cc(C(F)(F)F)ccc1Cl` [SSTA-0247, N-(2-chloro-4-fluorophenyl)-N-(5-((2-chloro-5-(trifluoromethyl)phenyl)carbamoyl)-4-methylthiazol-2-yl)cyclopropane-1,1-dicarboxamide] cannot be ordered by EC50: greater than 1000 nM for the first, greater than 1000 nM for the second.

`Cc1nc(NC(=O)C2(C(=O)Nc3ccc(F)cc3)CC2)oc1C(=O)Nc1cccc(C(F)(F)F)c1` [SSTA-0190, N-(4-fluorophenyl)-N-(4-methyl-5-((3-(trifluoromethyl)phenyl)carbamoyl)oxazol-2-yl)cyclopropane-1,1-dicarboxamide] and `Cc1nc(NC(=O)C2(C(=O)Nc3ccc(F)cc3)CC2)oc1C(=O)Nc1ccc(Cl)c(Cl)c1` [SSTA-0191, N-(5-((3,4-dichlorophenyl)carbamoyl)-4-methyloxazol-2-yl)-N-(4-fluorophenyl)cyclopropane-1,1-dicarboxamide] cannot be ordered by EC50: greater than 1000 nM for the first, greater than 1000 nM for the second.

`O=C(Nc1cc(C(F)(F)F)ccc1Cl)c1sc(NC(=O)C2(C(=O)Nc3ccc(F)cc3)CC2)nc1C(F)(F)F` [SSTA-0217, N-(5-((2-chloro-5-(trifluoromethyl)phenyl)carbamoyl)-4-(trifluoromethyl)thiazol-2-yl)-N-(4-fluorophenyl)cyclopropane-1,1-dicarboxamide] and `O=C(Nc1cc(C(F)(F)F)ccc1Cl)c1sc(NC(=O)C2(C(=O)Nc3ccc(F)cc3)CC2)nc1C1CC1` [SSTA-0218, N-(5-((2-chloro-5-(trifluoromethyl)phenyl)carbamoyl)-4-cyclopropylthiazol-2-yl)-N-(4-fluorophenyl)cyclopropane-1,1-dicarboxamide] fall in the same range of EC50: 250 to 1000 nM for the first, 250 to 1000 nM for the second.

First: Cc1nc(-c2ccc(NC(=O)C3(C(=O)Nc4nc(C)c(C(=O)Nc5cc(C(F)(F)F)ccc5Cl)s4)CC3)cc2)no1 [SSTA-0229, N-(5-((2-chloro-5-(trifluoromethyl)phenyl)carbamoyl)-4-methylthiazol-2-yl)-N-(4-(5-methyl-1,2,4-oxadiazol-3-yl)phenyl)cyclopropane-1,1-dicarboxamide]
Second: Cc1nc(NC(=O)C2(C(=O)Nc3ccc(Cl)c(F)c3)CC2)sc1C(=O)Nc1cc(C(F)(F)F)ccc1Cl [SSTA-0236, N-(4-chloro-3-fluorophenyl)-N-(5-((2-chloro-5-(trifluoromethyl)phenyl)carbamoyl)-4-methylthiazol-2-yl)cyclopropane-1,1-dicarboxamide]
The EC50 of the first is higher: greater than 1000 nM for the first, 250 to 1000 nM for the second. The second is the more potent here.

`COc1cc(NC(=O)C2(C(=O)Nc3nc(C)c(C(=O)Nc4cc(C(F)(F)F)ccc4Cl)s3)CC2)cc(C(F)(F)F)c1` [SSTA-0234, N-(5-((2-chloro-5-(trifluoromethyl)phenyl)carbamoyl)-4-methylthiazol-2-yl)-N-(3-methoxy-5-(trifluoromethyl)phenyl)cyclopropane-1,1-dicarboxamide] and `COc1cc(F)cc(NC(=O)C2(C(=O)Nc3nc(C)c(C(=O)Nc4cc(C(F)(F)F)ccc4Cl)s3)CC2)c1` [SSTA-0241, N-(5-((2-chloro-5-(trifluoromethyl)phenyl)carbamoyl)-4-methylthiazol-2-yl)-N-(3-fluoro-5-methoxyphenyl)cyclopropane-1,1-dicarboxamide] fall in the same range of EC50: 250 to 1000 nM for the first, 250 to 1000 nM for the second.

`Cc1nc(NC(=O)C2(C(=O)Nc3cc(F)cc(Cl)c3)CC2)sc1C(=O)Nc1cc(C(F)(F)F)ccc1Cl` [SSTA-0237, N-(5-((2-chloro-5-(trifluoromethyl)phenyl)carbamoyl)-4-methylthiazol-2-yl)-N-(3-chloro-5-fluorophenyl)cyclopropane-1,1-dicarboxamide] and `Cc1nc(NC(=O)C2(C(=O)Nc3ccc(F)c(F)c3)CC2)sc1C(=O)Nc1cc(C(F)(F)F)ccc1Cl` [SSTA-0238, N-(5-((2-chloro-5-(trifluoromethyl)phenyl)carbamoyl)-4-methylthiazol-2-yl)-N-(3,4-difluorophenyl)cyclopropane-1,1-dicarboxamide] fall in the same range of EC50: 250 to 1000 nM for the first, 250 to 1000 nM for the second.

`Cc1nc(NC(=O)C2(C(=O)Nc3cc(F)ccc3F)CC2)sc1C(=O)Nc1cc(C(F)(F)F)ccc1Cl` [SSTA-0239, N-(5-((2-chloro-5-(trifluoromethyl)phenyl)carbamoyl)-4-methylthiazol-2-yl)-N-(2,5-difluorophenyl)cyclopropane-1,1-dicarboxamide] and `Cc1nc(NC(=O)C2(C(=O)Nc3ccc(F)cc3F)CC2)sc1C(=O)Nc1cc(C(F)(F)F)ccc1Cl` [SSTA-0248, N-(5-((2-chloro-5-(trifluoromethyl)phenyl)carbamoyl)-4-methylthiazol-2-yl)-N-(2,4-difluorophenyl)cyclopropane-1,1-dicarboxamide] cannot be ordered by EC50: greater than 1000 nM for the first, greater than 1000 nM for the second.

`COc1c(F)cccc1NC(=O)C1(C(=O)Nc2nc(C)c(C(=O)Nc3cc(C(F)(F)F)ccc3Cl)s2)CC1` [SSTA-0240, N-(5-((2-chloro-5-(trifluoromethyl)phenyl)carbamoyl)-4-methylthiazol-2-yl)-N-(3-fluoro-2-methoxyphenyl)cyclopropane-1,1-dicarboxamide] and `Cc1nc(NC(=O)C2(C(=O)Nc3ccc(F)cc3OC(C)C)CC2)sc1C(=O)Nc1cc(C(F)(F)F)ccc1Cl` [SSTA-0242, N-(5-((2-chloro-5-(trifluoromethyl)phenyl)carbamoyl)-4-methylthiazol-2-yl)-N-(4-fluoro-2-isopropoxyphenyl)cyclopropane-1,1-dicarboxamide] cannot be ordered by EC50: greater than 1000 nM for the first, greater than 1000 nM for the second.

In the case of `Cc1nc(NC(=O)C2(C(=O)Nc3cc(C(F)(F)F)ccc3Cl)CC2)sc1C(=O)Nc1cc(C(F)(F)F)ccc1Cl` [SSTA-0250, N-(2-chloro-5-(trifluoromethyl)phenyl)-N-(5-((2-chloro-5-(trifluoromethyl)phenyl)carbamoyl)-4-methylthiazol-2-yl)cyclopropane-1,1-dicarboxamide], the EC50 is reported as 250 to 1000 nM.
